For 22 compounds, IC50 results are on record in patent US20230081426A1, “COMPOUNDS AND METHODS FOR KRAS MODULATION AND INDICATIONS THEREFOR” (Plexxikon Inc., priority 2020, published 2023).

Broadly, the IC50 is the point on the concentration scale where inhibition reaches its midpoint.

Assay [1] deals with T1, G12D-mutant human KRAS (amino acid residues 1-188) (Homo sapiens, UniProt P01116, G12D).
T1 construct: G12D or G12C-mutant human KRAS (amino acid residues 1-188) with FLAG tag; made in house; host or cells: E. coli
The assay is described as follows: KRAS Binding Disruption Assay (AlphaScreen; biotinylated KRpep-2d analogue or RAF1-RBD), G12D. The settings on record: KRAS G12D; geometric mean; read-out: KRAS GMean IC50 (uM) MUTATION: G12D. The essentials: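 Displacement format with mutant KRAS, biotinylated KRpep-2d analogue or RAF1-RBD (5-20 nM each) at pH 7.5 with 5 mM MgCl2.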
(Bead proximity is the source of the signal in Alpha formats.)

Assay [2] addresses T2, G12V-mutant human KRAS (amino acid residues 1-188) (Homo sapiens, UniProt P01116, G12V).
T2 construct: G12V-mutant human KRAS (amino acid residues 1-188) with FLAG tag was purified from E. coli; made in house; host or cells: E. coli
Put plainly: KRAS Binding Competition Assay (AlphaScreen; biotinylated KRpep-2d analogue), G12V. To be noted: geometric mean, read-out: KRAS GMean IC50 (uM) MUTATION: G12V.

Take `CN1CCC[C@H]1COc1nc(N2C[C@H]3CC[C@@H](C2)N3)c2cc(F)c(-c3c[nH]c4ccccc34)c(F)c2n1` [P-0308, 4-((1R,5S)-3,8-diazabicyclo[3.2.1]octan-3-yl)-6,8-difluoro-7-(1H-indol-3-yl)-2-(((S)-1-methylpyrrolidin-2-yl)methoxy)quinazoline]: the IC50 lay in the range of 0.0001 to 10 µM in assay [1] and 10 to 100 µM in assay [2].
For `CN1CCC[C@H]1COc1nc(N2C[C@H]3CC[C@@H](C2)N3)c2cc(F)c(-c3c[nH]c4cccc(Cl)c34)c(F)c2n1` [P-0309, 4-((1R,5S)-3,8-diazabicyclo[3.2.1]octan-3-yl)-7-(4-chloro-1H-indol-3-yl)-6,8-difluoro-2-(((S)-1-methylpyrrolidin-2-yl)methoxy)quinazoline] the same measures were 10 to 100 µM and 10 to 100 µM.
For `CN1CCC[C@H]1COc1nc(N2C[C@H]3CC[C@@H](C2)N3)c2cc(F)c(-c3c[nH]c4ccc(Cl)cc34)c(F)c2n1` [P-0310, 4-((1R,5S)-3,8-diazabicyclo[3.2.1]octan-3-yl)-7-(5-chloro-1H-indol-3-yl)-6,8-difluoro-2-(((S)-1-methylpyrrolidin-2-yl)methoxy)quinazoline], in that order: 0.0001 to 10 µM and 10 to 100 µM.
For the compound `CN1CCC[C@H]1COc1nc(N2[C@@H]3CC[C@H]2CN(C(=O)CC(C)(C)O)C3)c2ccc(-c3cc(O)cc4ccccc34)cc2n1` [P-0311, 3-hydroxy-1-((1R,5S)-8-(7-(3-hydroxynaphthalen-1-yl)-2-(((S)-1-methylpyrrolidin-2-yl)methoxy)quinazolin-4-yl)-3,8-diazabicyclo[3.2.1]octan-3-yl)-3-methylbutan-1-one], the IC50 in assay [1] and in assay [2] was 10 to 100 µM each time.
Turning to `CN1CCC[C@H]1COc1nc(N2[C@@H]3CC[C@H]2CN(C(=O)Cc2n[nH]c4ccccc24)C3)c2ccc(-c3cc(O)cc4ccccc34)cc2n1` [P-0312, 1-((1R,5S)-8-(7-(3-hydroxynaphthalen-1-yl)-2-(((S)-1-methylpyrrolidin-2-yl)methoxy)quinazolin-4-yl)-3,8-diazabicyclo[3.2.1]octan-3-yl)-2-(1H-indazol-3-yl)ethan-1-one], the IC50 in assay [1] and in assay [2] was 10 to 100 µM throughout.
Consider `CN1CCC[C@H]1COc1nc(N2C[C@H]3CC[C@@H](C2)N3)c2ccc(-c3c[nH]c4ccc(C#N)cc34)c(F)c2n1` [P-0313, 3-(4-((1R,5S)-3,8-diazabicyclo[3.2.1]octan-3-yl)-8-fluoro-2-(((S)-1-methylpyrrolidin-2-yl)methoxy)quinazolin-7-yl)-1H-indole-5-carbonitrile], for which the IC50 in assay [1] fell in the range of 10 to 100 µM; in assay [2], 100 to 1000 µM.
With `COc1ccc2[nH]cc(-c3ccc4c(N5C[C@H]6CC[C@@H](C5)N6)nc(OC[C@@H]5CCCN5C)nc4c3F)c2c1` [P-0314, 4-((1R,5S)-3,8-diazabicyclo[3.2.1]octan-3-yl)-8-fluoro-7-(5-methoxy-1H-indol-3-yl)-2-(((S)-1-methylpyrrolidin-2-yl)methoxy)quinazoline], the IC50 in assay [1] lay within 10 to 100 µM; in assay [2] it was 100 to 1000 µM.
As for `CN1CCC[C@H]1COc1nc(N2[C@@H]3CC[C@H]2CN(C(=O)CS(N)(=O)=O)C3)c2ccc(-c3cc(O)cc4ccccc34)cc2n1` [P-0315, 2-((1R,5S)-8-(7-(3-hydroxynaphthalen-1-yl)-2-(((S)-1-methylpyrrolidin-2-yl)methoxy)quinazolin-4-yl)-3,8-diazabicyclo[3.2.1]octan-3-yl)-2-oxoethane-1-sulfonamide], the IC50 in assay [1] and in assay [2] was 10 to 100 µM each time.
On to `CN1CCC[C@H]1COc1nc(N2[C@@H]3CC[C@H]2CN(C(=O)CNS(N)(=O)=O)C3)c2ccc(-c3cc(O)cc4ccccc34)cc2n1` [P-0316, N-(2-((1R,5S)-8-(7-(3-hydroxynaphthalen-1-yl)-2-(((S)-1-methylpyrrolidin-2-yl)methoxy)quinazolin-4-yl)-3,8-diazabicyclo[3.2.1]octan-3-yl)-2-oxoethyl)aminosulfonamide], for which the IC50 in assay [1] and in assay [2] was 10 to 100 µM throughout.
Take `CN1CCC[C@H]1COc1nc(N2[C@@H]3CC[C@H]2CN(C(=O)CNC(N)=O)C3)c2ccc(-c3cc(O)cc4ccccc34)cc2n1` [P-0317, 1-(2-((1R,5S)-8-(7-(3-hydroxynaphthalen-1-yl)-2-(((S)-1-methylpyrrolidin-2-yl)methoxy)quinazolin-4-yl)-3,8-diazabicyclo[3.2.1]octan-3-yl)-2-oxoethyl)urea]: the IC50 in assay [1] and in assay [2] was 10 to 100 µM each time.
Regarding `CN1CCC[C@H]1COc1nc(N2C[C@H]3CC[C@@H](C2)N3)c2cc(Cl)c(-c3c[nH]c4ccccc34)c(F)c2n1` [P-0318, 4-((1R,5S)-3,8-diazabicyclo[3.2.1]octan-3-yl)-6-chloro-8-fluoro-7-(1H-indol-3-yl)-2-(((S)-1-methylpyrrolidin-2-yl)methoxy)quinazoline], the IC50 in assay [1] lay in the range of 0.0001 to 10 µM; in assay [2] it was 10 to 100 µM.
As for `COc1ccc2[nH]cc(-c3c(Cl)cc4c(N5C[C@H]6CC[C@@H](C5)N6)nc(OC[C@@H]5CCCN5C)nc4c3F)c2c1` [P-0319, 4-((1R,5S)-3,8-diazabicyclo[3.2.1]octan-3-yl)-6-chloro-8-fluoro-7-(5-methoxy-1H-indol-3-yl)-2-(((S)-1-methylpyrrolidin-2-yl)methoxy)quinazoline], the figures for the IC50 in assay [1] and in assay [2] were 0.0001 to 10 µM and 10 to 100 µM, respectively.
Regarding `CN(C)c1cccc(COc2nc(N3[C@@H]4CC[C@H]3CNC4)c3ccc(-c4cc(O)cc5ccccc45)cc3n2)c1` [P-0320, 4-(4-((1R,5S)-3,8-diazabicyclo[3.2.1]octan-8-yl)-2-((3-(dimethylamino)benzyl)oxy)quinaz-olin-7-yl)naphthalen-2-ol], the IC50 in assay [1] and in assay [2] was 0.0001 to 10 µM each time.
On to `Oc1cc(-c2ccc3c(N4[C@@H]5CC[C@H]4CNC5)nc(Oc4cccnc4)nc3c2)c2ccccc2c1` [P-0321, 4-(4-((1R,5S)-3,8-diazabicyclo[3.2.1]octan-8-yl)-2-(pyridin-3-yloxy)quinazolin-7-yl)naphthalen-2-ol], for which the IC50 in assay [1] and in assay [2] was 10 to 100 µM each time.
As to `Oc1cc(-c2ccc3c(N4[C@@H]5CC[C@H]4CNC5)nc(Nc4cccnc4)nc3c2)c2ccccc2c1` [P-0322, 4-(4-((1R,5S)-3,8-diazabicyclo[3.2.1]octan-8-yl)-2-(pyridin-3-ylamino)quinazolin-7-yl)naphthalen-2-ol], the IC50 in assay [1] and in assay [2] was 10 to 100 µM throughout.
For `CN1CCC[C@H]1COc1nc(N2C[C@H]3CC[C@@H](C2)N3)c2cc(Cl)c(-c3c[nH]c4ccc(Cl)cc34)c(F)c2n1` [P-0323, 4-((1R,5S)-3,8-diazabicyclo[3.2.1]octan-3-yl)-6-chloro-7-(5-chloro-1H-indol-3-yl)-8-fluoro-2-(((S)-1-methylpyrrolidin-2-yl)methoxy)quinazoline], the figures for the IC50 in assay [1] and in assay [2] were 0.0001 to 10 µM and 10 to 100 µM, respectively.
For the compound `CN1CCC[C@H]1COc1nc(N2[C@@H]3CC[C@H]2CN(C(=O)CC(=O)O)C3)c2ccc(-c3cc(O)cc4ccccc34)cc2n1` [P-0324, 3-((1R,5S)-8-(7-(3-hydroxynaphthalen-1-yl)-2-(((S)-1-methylpyrrolidin-2-yl)methoxy)quinazolin-4-yl)-3,8-diazabicyclo[3.2.1]octan-3-yl)-3-oxopropanoic acid], the IC50 fell in the range of 100 to 1000 µM in assay [1] and 10 to 100 µM in assay [2].
Take `CN1CCC[C@H]1COc1nc(N2[C@@H]3CC[C@H]2CN(C(=O)CC#N)C3)c2ccc(-c3cc(O)cc4ccccc34)cc2n1` [P-0325, 3-((1R,5S)-8-(7-(3-hydroxynaphthalen-1-yl)-2-(((S)-1-methylpyrrolidin-2-yl)methoxy)quinazolin-4-yl)-3,8-diazabicyclo[3.2.1]octan-3-yl)-3-oxopropanenitrile]: the results for the IC50 in assay [1] and in assay [2] were 10 to 100 µM and 0.0001 to 10 µM, respectively.
In the case of `CN(C)c1ccc(CCc2nc(N3C[C@H]4CC[C@@H](C3)N4)c3cc(Cl)c(-c4c(O)cccc4F)c(F)c3n2)cc1` [P-0326, 2-(4-((1R,5S)-3,8-diazabicyclo[3.2.1]octan-3-yl)-6-chloro-2-(4-(dimethylamino)phenethyl)-8-fluoroquinazolin-7-yl)-3-fluorophenol], the IC50 in assay [1] and in assay [2] was 0.0001 to 10 µM throughout.
Consider `CN1CCC[C@H]1COc1nc(N2CC3CCC2CN3)c2ccc(-c3cc(O)cc4ccccc34)c(F)c2n1` (stereo partly drawn) [P-0327, 4-(4-(2,5-diazabicyclo[2.2.2]octan-2-yl)-8-fluoro-2-(((S)-1-methylpyrrolidin-2-yl)methoxy)quinazolin-7-yl)naphthalen-2-ol], for which the results for the IC50 in assay [1] and in assay [2] were 0.0001 to 10 µM and 10 to 100 µM, respectively.
`CN1CCC(Oc2nc(N3C[C@H]4CC[C@@H](C3)N4)c3cc(Cl)c(-c4c(O)cccc4F)c(F)c3n2)CC1` [P-0329, 2-(4-((1R,5S)-3,8-diazabicyclo[3.2.1]octan-3-yl)-6-chloro-8-fluoro-2-((1-methylpiperidin-4-yl)oxy)quinazolin-7-yl)-3-fluorophenol]: the IC50 is 0.0001 to 10 µM in assay [1] and 10 to 100 µM in assay [2].
As for `COc1cccc(F)c1-c1c(Cl)cc2c(N3C[C@H]4CC[C@@H](C3)N4)nc(OC3CCN(C)CC3)nc2c1F` [P-0330, 4-((1R,5S)-3,8-diazabicyclo[3.2.1]octan-3-yl)-6-chloro-8-fluoro-7-(2-fluoro-6-methoxyphenyl)-2-((1-methylpiperidin-4-yl)oxy)quinazoline], the IC50 in assay [1] fell in the range of 0.0001 to 10 µM; in assay [2], 10 to 100 µM.
